Assay results taken from the supplement of paper PMC9663587.

Tests used:
[1] = system: AU565; experiment: GRmax, 72 h; higher = less effect;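 further: breast cell lines in 384-well plates, nine doses across a 10^4 range, Dye Drop imaging of viable cells vs DMSO and time-zero plates, GR 0 means no net growth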
[2] = system: EFM19; experiment: GRmax, 72 h; higher = less effect;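 further: breast cell lines in 384-well plates, nine doses across a 10^4 range, Dye Drop imaging of viable cells vs DMSO and time-zero plates, GR 0 means no net growth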
[3] = system: HCC1937; experiment: GRmax, 72 h; higher = less effect;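 further: breast cell lines in 384-well plates, nine doses across a 10^4 range, Dye Drop imaging of viable cells vs DMSO and time-zero plates, GR 0 means no net growth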
[4] = system: HS578T; experiment: GRmax, 72 h; higher = less effect;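 further: breast cell lines in 384-well plates, nine doses across a 10^4 range, Dye Drop imaging of viable cells vs DMSO and time-zero plates, GR 0 means no net growth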
[5] = system: PDX1206; experiment: GRmax, 72 h; higher = less effect
[6] = system: PDXHCI002; experiment: GRmax, 72 h; higher = less effect
[7] = system: SUM149; experiment: GRmax, 72 h; higher = less effect
[8] = system: MCF10A (GM); experiment: area over the GR curve, 72 h; higher = more effect;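 further: Dye Drop or Deep Dye Drop imaging of viable cells in 384-well plates (Hoechst nuclei, LIVE/DEAD dye), nine half-log doses, GR normalized to DMSO controls and time-zero plates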
[9] = system: PDX1206; experiment: area over the GR curve, 72 h; higher = more effect;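 further: Dye Drop or Deep Dye Drop imaging of viable cells in 384-well plates (Hoechst nuclei, LIVE/DEAD dye), nine half-log doses, GR normalized to DMSO controls and time-zero plates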
[10] = system: HCC1428; experiment: area over the GR curve, 72 h; higher = more effect;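 further: Dye Drop or Deep Dye Drop imaging of viable cells in 384-well plates (Hoechst nuclei, LIVE/DEAD dye), nine half-log doses, GR normalized to DMSO controls and time-zero plates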
[11] = system: HCC1500; experiment: area over the GR curve, 72 h; higher = more effect;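 further: Dye Drop or Deep Dye Drop imaging of viable cells in 384-well plates (Hoechst nuclei, LIVE/DEAD dye), nine half-log doses, GR normalized to DMSO controls and time-zero plates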
[12] = system: MDAMB157; experiment: area over the GR curve, 72 h; higher = more effect

Compound | GRmax, 72 h [1] | GRmax, 72 h [2] | GRmax, 72 h [3] | GRmax, 72 h [4] | GRmax, 72 h [5] | GRmax, 72 h [6] | GRmax, 72 h [7] | area over the GR curve [8] | area over the GR curve [9] | area over the GR curve [10] | area over the GR curve [11] | area over the GR curve [12] | GRmax, 72 h ([3]; main component drawn) | GRmax, 72 h ([4]; main component drawn) | GRmax, 72 h ([6]; main component drawn) | GRmax, 72 h ([7]; main component drawn) | area over the GR curve ([10]; main component drawn) | area over the GR curve ([11]; main component drawn) | area over the GR curve ([12]; main component drawn)
COc1ccc2c(c1)[C@]1(C[C@H]1c1ccc3c(/C=C/c4ccc(CN5C[C@@H](C)O[C@@H](C)C5)cc4)n[nH]c3c1)C(=O)N2 | -0.165 GR | 0.146 GR | -0.149 GR | -0.103 GR | 0.0507 GR | 0.107 GR | -0.0713 GR | 0.507 GR | 0.504 GR |  |  |  |  |  |  |  |  |  | 
COc1cccc(OCCCN)c1-c1cc(Nc2cnc(C#N)cn2)n[nH]1 | 0.0394 GR | 0.929 GR | 0.0059 GR | -0.359 GR | -0.497 GR | 0.705 GR | -0.453 GR | 0.245 GR | 0.427 GR |  |  |  |  |  |  |  |  |  | 
CC(=O)Nc1cccc(-n2c(=O)n(C3CC3)c(=O)c3c(Nc4ccc(I)cc4F)n(C)c(=O)c(C)c32)c1 (max 1 µM) | 1.01 GR | 0.952 GR | 0.689 GR | 0.193 GR |  | 0.642 GR | 0.237 GR |  |  | 0.0695 GR | 0.212 GR | 0.301 GR |  |  |  |  |  |  | 
CCc1cnn2c(NCc3ccc[n+]([O-])c3)cc(N3CCCC[C@H]3CCO)nc12 (max 1 µM) | -0.752 GR | -0.532 GR | -0.207 GR | -0.239 GR |  | -0.361 GR | -0.566 GR |  |  | 0.656 GR | 0.662 GR | 0.765 GR |  |  |  |  |  |  | 
CC(=O)c1c(C)c2cnc(Nc3ccc(N4CCNCC4)cn3)nc2n(C2CCCC2)c1=O (max 3.162 µM) | 0.177 GR | 0.308 GR | 1.08 GR | 0.305 GR |  | 0.277 GR | 0.485 GR |  |  | 0.314 GR | 0.11 GR | -0.0037 GR |  |  |  |  |  |  | 
CCc1cncnc1N1CCN(Cc2nc3ccc(C(F)(F)F)cc3[nH]2)CC1 (max 10 µM) | 0.476 GR | 0.921 GR | 0.769 GR | 0.914 GR |  | 0.873 GR | 0.746 GR |  |  | -0.0224 GR | 0.182 GR | 0.119 GR |  |  |  |  |  |  | 
CCN1CCN(Cc2ccc(Nc3ncc(F)c(-c4cc(F)c5nc(C)n(C(C)C)c5c4)n3)nc2)CC1 (max 10 µM) | -0.321 GR | 0.267 GR | 0.302 GR | -0.583 GR |  | -0.677 GR | 0.0962 GR |  |  | 0.636 GR | 0.342 GR | 0.266 GR |  |  |  |  |  |  | 
Cc1nn(C)c(COc2ccc(N3CCN(S(=O)(=O)N(C)C)CC3)cc2)c1-c1cccc2c(CCCOc3cccc4ccccc34)c(C(=O)O)n(CCN3CCOCC3)c12 (max 10 µM) | 0.611 GR | 1 GR | 0.724 GR | 0.942 GR |  | 0.981 GR | 0.391 GR |  |  | -0.0325 GR | -0.063 GR | 0.0057 GR |  |  |  |  |  |  | 
CN(C)CC[C@H](CSc1ccccc1)Nc1ccc(S(=O)(=O)NC(=O)c2ccc(N3CCN(Cc4ccccc4-c4ccc(Cl)cc4)CC3)cc2)cc1[N+](=O)[O-] [ABT-737] (max 10 µM) | 0.261 GR | 0.475 GR | 0.269 GR | 0.775 GR |  | 0.146 GR | -0.28 GR |  |  | 0.111 GR | 1.13 GR | 0.0446 GR |  |  |  |  |  |  | 
NC(=O)Nc1cc(-c2cccc(F)c2)sc1C(=O)N[C@H]1CCCNC1 [AZD7762] (max 10 µM) | -0.597 GR | -0.149 GR | -0.362 GR | -0.598 GR |  | -0.582 GR | -0.477 GR |  |  | 0.323 GR | 0.614 GR | 0.984 GR |  |  |  |  |  |  | 
Cc1nc(NC(=O)N2CCC[C@H]2C(N)=O)sc1-c1ccnc(C(C)(C)C(F)(F)F)c1 [Alpelisib/BYL719] (max 10 µM) | -0.472 GR | -0.151 GR | 0.658 GR | 0.531 GR |  | 0.63 GR | 0.848 GR |  |  | 0.0107 GR | -0.0097 GR | 0.101 GR |  |  |  |  |  |  | 
Cc1c(N)nc([C@H](CC(N)=O)NC[C@H](N)C(N)=O)nc1C(=O)N[C@H](C(=O)N[C@H](C)[C@@H](O)[C@H](C)C(=O)N[C@H](C(=O)NCCc1nc(-c2nc(C(=O)NCCC[S+](C)C)cs2)cs1)[C@@H](C)O)[C@@H](OC1OC(CO)C(O)C(O)C1OC1OC(CO)C(O)C(OC(N)=O)C1O)c1cnc[nH]1 (stereo partly drawn) [Bleomycin] (max 10 µM) |  |  |  |  |  |  |  |  |  |  |  |  | 0.139 GR | -0.197 GR | -0.12 GR | -0.315 GR | 0.178 GR | 0.147 GR | 0.281 GR
Nc1cc(C(F)(F)F)c(-c2cc(N3CCOCC3)nc(N3CCOCC3)n2)cn1 [Buparlisib/NVP-BKM120] (max 10 µM) | -0.555 GR | -0.356 GR | -0.226 GR | -0.343 GR |  | -0.48 GR | -0.331 GR |  |  | 0.344 GR | 0.512 GR | 0.302 GR |  |  |  |  |  |  | 
COc1cc2nccc(Oc3ccc(NC(=O)C4(C(=O)Nc5ccc(F)cc5)CC4)cc3)c2cc1OC [Cabozantinib] (max 10 µM) | 0.312 GR | 0.668 GR | 0.76 GR | 0.215 GR |  | 0.234 GR | 0.3 GR |  |  | 0.0108 GR | -0.0192 GR | 0.21 GR |  |  |  |  |  |  | 
COc1cc2c(Oc3ccc4[nH]c(C)cc4c3F)ncnc2cc1OCCCN1CCCC1 [Cediranib/AZD2171] (max 10 µM) | 0.887 GR | 0.685 GR | 0.278 GR | -0.572 GR |  | -0.432 GR | 0.0682 GR |  |  | 0.189 GR | 0.0909 GR | 0.349 GR |  |  |  |  |  |  | 
Cc1cc(Nc2ncc(Cl)c(Nc3ccccc3S(=O)(=O)C(C)C)n2)c(OC(C)C)cc1C1CCNCC1 [Ceritinib/LDK378] (max 10 µM) | 0.498 GR | -0.258 GR | -0.573 GR | -0.436 GR |  | -0.634 GR | -0.438 GR |  |  | 0.295 GR | 0.274 GR | 0.46 GR |  |  |  |  |  |  | 
N.N.[Cl][Pt][Cl] [Cisplatin] (max 10 µM) |  |  | 0.006 GR | 0.0125 GR |  | -0.0985 GR | -0.229 GR |  |  | 0.221 GR | 0.0866 GR | 0.117 GR |  |  |  |  |  |  | 
Cc1nc(Nc2ncc(C(=O)Nc3c(C)cccc3Cl)s2)cc(N2CCN(CCO)CC2)n1 [Dasatinib] (max 10 µM) | 0.26 GR | -0.0421 GR | 0.0153 GR | -0.244 GR |  | 0.0322 GR | -0.172 GR |  |  | 0.256 GR | 0.925 GR | 0.518 GR |  |  |  |  |  |  | 
